Patent publication US5281581A, “Treatment of insulin resistance” (Amylin Pharmaceuticals, Inc., priority 1992, dated 1994)

System: rat islets of Langerhans
Test: glucose-stimulated insulin secretion by isolated islets of Langerhans
Assay type: cell-based
Conditions: glucose 10 mmol/L
Procedure: All experiments were performed by known methods used in experimental practice. See, e.g., Lacey P. E., and Kostianovsky M, Method for the isolation of intact islets of Langerhans from the rat pancreas. Diabetes 1967; 16: 35-39.
Briefly, rats were killed, and islets of Langerhans were isolated from their pancreases. Experiments were performed either with freshly isolated islets or after overnight incubation of islets (23 h) in standard culture medium and conditions at 37° C. […] Incubation of islets for these experiments was carried out in standard Krebs-Heinsleit buffer, and it was verified that the addition of the 1.0 mmol/L citrate buffer had no effect on the pH of the incubation medium. Stimulation of islets was carried out at the standard stimulatory glucose concentration of 10 mmol/L.
Production of insulin is expressed as μU/islet/h. All experiments were performed with five replicates per point. The integrity of the islet response was assessed by comparing the responses after stimulation of different aliquots of islets by two and ten mmol/L glucose, respectively, and the strength of the inhibitory response was judged against that induced by 1 μg/ml (650 nmol/L) somatostatin. […] See Arimura A. Biomed res 1981; 2: 233-257. […] See Petterson M., Ahren B., Bottcher G., Sundler F., Endocrinology 1986; 119: 865-869.
The results are shown in TABLE 5 below and all results are expressed as ± standard error of the mean (s.e.m.). The significance of differences between the means of groups is assessed by the t-test. The result of stimulation by 10 mmol/L glucose is compared with the results of stimulation at 2 mmol/L glucose. In all other experimental conditions, the significance of the inhibitory effect is measured against the effect of 10 mmol/L glucose alone.

Compound: C[C@H](N)C(=O)NCC(=O)N[C@H]1CSSC[C@@H](C(=O)O)NC(=O)[C@H](CO)NC(=O)[C@H]([C@@H](C)O)NC(=O)[C@H](Cc2ccccc2)NC(=O)[C@H]([C@@H](C)O)NC(=O)[C@H](CCCCN)NC(=O)[C@H](Cc2c[nH]c3ccccc23)NC(=O)[C@H](Cc2ccccc2)NC(=O)[C@H](Cc2ccccc2)NC(=O)[C@H](CC(N)=O)NC(=O)[C@H](CCCCN)NC1=O [Somatostatin, reference compound]
- INSULIN PRODUCTION Mean Value (substance 650 nmol/L): 44 μU/islet/hr
- RELATIVE INSULIN SECRETION INHIBITION (substance 650 nmol/L): 45%

Compound: CGRP 27-37
- INSULIN PRODUCTION Mean Value (substance 10 nmol/L): 36 μU/islet/hr
- RELATIVE INSULIN SECRETION INHIBITION (substance 10 nmol/L): 55%
- INSULIN PRODUCTION Mean Value (substance 100 nmol/L): 36 μU/islet/hr
- RELATIVE INSULIN SECRETION INHIBITION (substance 100 nmol/L): 55%
- INSULIN PRODUCTION Mean Value (substance 1000 nmol/L): 46 μU/islet/hr
- RELATIVE INSULIN SECRETION INHIBITION (substance 1000 nmol/L): 42%
